Results as given in PMC8617031, “Development of a BCL-xL and BCL-2 dual degrader with improved anti-leukemic activity,” (Nature Communications, 2021).
Values joined by “and” are separate entries in the source; they are usually repeats but may differ in a detail not shown here. Identical values can stand only once. Like-named read-outs stand apart in the source and are kept apart here.

Legend:
His-tagged BCL-2 = target: T1, His-tagged BCL-2 (Homo sapiens, UniProt P10415); test: AlphaScreen competitive binary binding, BCL-2 (biotin-BIM peptide); details: for Alpha signal normalised to Maximum/Minimum (inhibition): in % (unit assumed)
T1 construct: purchased Sigma-Aldrich SRP0186
T1 sequence (P10415 whole entry): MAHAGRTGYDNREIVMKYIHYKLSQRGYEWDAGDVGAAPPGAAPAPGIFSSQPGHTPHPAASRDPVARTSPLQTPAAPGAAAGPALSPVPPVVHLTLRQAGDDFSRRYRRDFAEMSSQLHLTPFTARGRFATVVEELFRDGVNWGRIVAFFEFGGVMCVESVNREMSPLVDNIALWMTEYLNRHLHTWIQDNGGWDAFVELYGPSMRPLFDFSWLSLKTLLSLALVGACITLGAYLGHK
Protocol: (§1) The reagents were diluted in a buffer containing 250 mM HEPES pH 7.5, 1 M NaCl, 1% BSA, and 0.05% Tween-80. His-tagged BCL-xL (0.5 nM, Cat. No. SRP0187, Sigma-Aldrich) or BCL-2 (1 nM, Cat. No. SRP0186, Sigma-Aldrich) were incubated with serial diluted 753a or 753b and 2 nM biotin-tagged BAD (biotin-[…] amino-terminal, AnaSpec, for BCL-xL) or 10 nM BIM peptides (biotin-[…] N-terminal, AnaSpec, for BCL-2) to a final volume of 40 µl in a 96-well PCR plate. […] After incubation for 2 h, 5 µl 6× His-acceptor beads (Cat. No. AL128M, PerkinElmer) were added to each well at 20 µg/ml final concentration and incubated for 1 h. Then 5 µl streptavidin-donor beads were added (Cat. No. 6760002, PerkinElmer) to each well at 20 µg/ml final concentration and incubated for 45 min. At the end of the incubation period, 17 µl of each sample was transferred in adjacent wells of 384-well proxy plate (Cat. No. 6008280, PerkinElmer). The plate was scanned using the Alpha program on Biotek’s Synergy Neo2 multimode plate reader. The inhibition constant (Ki) was calculated using the non-linear regression, one site, competitive binding, Fit Ki function on GraphPad Prism 9 software, based on experimentally determined dissociation constant (Kd) for each protein–peptide pair.

His-tagged BCL-xL = target: T2, His-tagged BCL-xL (Homo sapiens, UniProt Q07817); test: AlphaScreen competitive binary binding, BCL-xL (biotin-BAD peptide)
T2 construct: purchased Sigma-Aldrich SRP0187
T2 sequence (Q07817 whole entry): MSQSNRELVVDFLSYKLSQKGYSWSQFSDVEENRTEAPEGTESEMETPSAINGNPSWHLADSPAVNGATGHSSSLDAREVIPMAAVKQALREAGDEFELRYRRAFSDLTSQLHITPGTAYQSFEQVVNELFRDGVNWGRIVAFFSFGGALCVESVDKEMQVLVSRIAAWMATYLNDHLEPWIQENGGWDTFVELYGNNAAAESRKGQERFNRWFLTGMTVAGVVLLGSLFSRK
Protocol: as §1

## CC1(C)CCC(c2ccc(Cl)cc2)=C(CN2CCN(c3ccc(C(=O)NS(=O)(=O)c4ccc(N[C@H](CCN5CCOCC5)CSc5ccccc5)c(S(=O)(=O)C(F)(F)F)c4)cc3)CC2)C1 [ABT263, navitoclax]
His-tagged BCL-2; BCL-2 Rep-1, 0.000305176 uM, 0.000305176 µM
  Alpha signal normalised to Maximum/Minimum (inhibition): 59.5965
His-tagged BCL-2; BCL-2 Rep-1, 0.000305176 uM, read-out: Alpha signal normalised to Maximum/Minimum (inhibition)
  inhibition at 0.000305176 µM: 58.7%
His-tagged BCL-2; BCL-2 Rep-1, 0.0012207 uM, 0.0012207 µM
  Alpha signal normalised to Maximum/Minimum (inhibition): 60.0938
His-tagged BCL-2; BCL-2 Rep-1, 0.0012207 uM, read-out: Alpha signal normalised to Maximum/Minimum (inhibition)
  inhibition at 0.0012207 µM: 49.1%
His-tagged BCL-2; BCL-2 Rep-1, 0.00488281 uM, 0.00488281 µM
  Alpha signal normalised to Maximum/Minimum (inhibition): 80.812
His-tagged BCL-2; BCL-2 Rep-1, 0.00488281 uM, read-out: Alpha signal normalised to Maximum/Minimum (inhibition)
  inhibition at 0.00488281 µM: 82.4%
His-tagged BCL-2; BCL-2 Rep-1, 0.0195312 uM, 0.0195312 µM
  Alpha signal normalised to Maximum/Minimum (inhibition): 99.3807
His-tagged BCL-2; BCL-2 Rep-1, 0.0195312 uM, read-out: Alpha signal normalised to Maximum/Minimum (inhibition)
  inhibition at 0.0195312 µM: 98.6%
His-tagged BCL-2; BCL-2 Rep-1, 0.078125 uM, 0.078125 µM
  Alpha signal normalised to Maximum/Minimum (inhibition): 99.9974
His-tagged BCL-2; BCL-2 Rep-1, 0.078125 uM, read-out: Alpha signal normalised to Maximum/Minimum (inhibition)
  inhibition at 0.078125 µM: 100%
His-tagged BCL-2; BCL-2 Rep-1, 0.3125 uM, 0.3125 µM
  Alpha signal normalised to Maximum/Minimum (inhibition): 99.341
His-tagged BCL-2; BCL-2 Rep-1, 0.3125 uM, read-out: Alpha signal normalised to Maximum/Minimum (inhibition)
  inhibition at 0.3125 µM: 98.9%
His-tagged BCL-2; BCL-2 Rep-1, 1.25 uM, 1.25 µM
  Alpha signal normalised to Maximum/Minimum (inhibition): 100.024
His-tagged BCL-2; BCL-2 Rep-1, 1.25 uM, read-out: Alpha signal normalised to Maximum/Minimum (inhibition)
  inhibition at 1.25 µM: 99%
His-tagged BCL-2; BCL-2 Rep-1, 5 uM, 5 µM
  Alpha signal normalised to Maximum/Minimum (inhibition): 98.7813
His-tagged BCL-2; BCL-2 Rep-1, 5 uM, read-out: Alpha signal normalised to Maximum/Minimum (inhibition)
  inhibition at 5 µM: 99%
His-tagged BCL-2; BCL-2 Rep-2, 0.00488281 uM
  Alpha signal (raw counts): 125701 and 136831
His-tagged BCL-2; BCL-2 Rep-2, 0.0195312 uM, 0.0195312 µM
  Alpha signal normalised to Maximum/Minimum (inhibition): 98.383
His-tagged BCL-2; BCL-2 Rep-2, 0.0195312 uM, read-out: Alpha signal normalised to Maximum/Minimum (inhibition)
  inhibition at 0.0195312 µM: 98.1%
His-tagged BCL-2; BCL-2 Rep-2, 0.078125 uM, 0.078125 µM
  Alpha signal normalised to Maximum/Minimum (inhibition): 99.1744
His-tagged BCL-2; BCL-2 Rep-2, 0.078125 uM, read-out: Alpha signal normalised to Maximum/Minimum (inhibition)
  inhibition at 0.078125 µM: 98.7%
His-tagged BCL-2; BCL-2 Rep-2, 0.3125 uM, 0.3125 µM
  Alpha signal normalised to Maximum/Minimum (inhibition): 99.3426
His-tagged BCL-2; BCL-2 Rep-2, 0.3125 uM, read-out: Alpha signal normalised to Maximum/Minimum (inhibition)
  inhibition at 0.3125 µM: 98.9%
His-tagged BCL-2; BCL-2 Rep-2, 1.25 uM, 1.25 µM
  Alpha signal normalised to Maximum/Minimum (inhibition): 99.8148
His-tagged BCL-2; BCL-2 Rep-2, 1.25 uM, read-out: Alpha signal normalised to Maximum/Minimum (inhibition)
  inhibition at 1.25 µM: 97.9%
His-tagged BCL-2; BCL-2 Rep-2, 5 uM, 5 µM
  Alpha signal normalised to Maximum/Minimum (inhibition): 100.138
His-tagged BCL-2; BCL-2 Rep-2, 5 uM, read-out: Alpha signal normalised to Maximum/Minimum (inhibition)
  inhibition at 5 µM: 98%
His-tagged BCL-2; BCL-2 Rep-2, plate row C, 1.25 uM
  Alpha signal (raw counts): 32515 and 16642
His-tagged BCL-2; BCL-2 Rep-2, plate row D, 0.3125 uM
  Alpha signal (raw counts): 24362 and 20560
His-tagged BCL-2; BCL-2 Rep-2, plate row E, 0.078125 uM
  Alpha signal (raw counts): 25987 and 21955
His-tagged BCL-2; BCL-2 Rep-2, plate row F, 0.0195312 uM
  Alpha signal (raw counts): 31255 and 28520
His-tagged BCL-2; BCL-2 Rep-2, plate row H, 0.0012207 uM
  Alpha signal (raw counts): 409647 and 386712
His-tagged BCL-2; BCL-2 Rep-2, plate row I, 0.000305176 uM
  Alpha signal (raw counts): 513586 and 565907
His-tagged BCL-2; BCL-2 Rep-2, plate row J, 7.62939e-5 uM
  Alpha signal (raw counts): 711623 and 736033
His-tagged BCL-2; BCL-2 Rep-2, plate row K, 1.90735e-5 uM
  Alpha signal (raw counts): 598210 and 675191
His-tagged BCL-xL; BCL-xL Rep-1, 0.000305176 uM, 0.000305176 µM
  Alpha signal normalised to Maximum/Minimum (inhibition): 28.4807
His-tagged BCL-xL; BCL-xL Rep-1, 0.000305176 uM, read-out: Alpha signal normalised to Maximum/Minimum (inhibition)
  inhibition at 0.000305176 µM: 32%
His-tagged BCL-xL; BCL-xL Rep-1, 0.0012207 uM, 0.0012207 µM
  Alpha signal normalised to Maximum/Minimum (inhibition): 28.8475
His-tagged BCL-xL; BCL-xL Rep-1, 0.0012207 uM, read-out: Alpha signal normalised to Maximum/Minimum (inhibition)
  inhibition at 0.0012207 µM: 27.8%
His-tagged BCL-xL; BCL-xL Rep-1, 0.00488281 uM, 0.00488281 µM
  Alpha signal normalised to Maximum/Minimum (inhibition): 50.9941
His-tagged BCL-xL; BCL-xL Rep-1, 0.00488281 uM, read-out: Alpha signal normalised to Maximum/Minimum (inhibition)
  inhibition at 0.00488281 µM: 46.4%
His-tagged BCL-xL; BCL-xL Rep-1, 0.0195312 uM, 0.0195312 µM
  Alpha signal normalised to Maximum/Minimum (inhibition): 73.9595
His-tagged BCL-xL; BCL-xL Rep-1, 0.0195312 uM, read-out: Alpha signal normalised to Maximum/Minimum (inhibition)
  inhibition at 0.0195312 µM: 70.8%
